Reference: patent publication US6562830B1, “Method of treating a patient having precancerous lesions with phenyl quinazolinone derivatives” (Cell Pathways, Inc., priority 1999, dated 2003)

| melting point | Compound |
| --- | --- |
| 204 to 205 °C | CCCOc1ccccc1-c1nc2cc(NC)ccc2c(=O)[nH]1 [Example 27, 7-Methylamino-2-(2-Propoxyphenyl)-4(3H)-quinazolinone] |
| 185 °C | CCCOc1ccccc1-c1nc2cc(N)ccc2c(=O)[nH]1 [Example 26, 7-Amino-2-(2-Propoxyphenyl)-4(3H)-quinazolinone] |
